Test results from patent US11980631B2, “β-lactamase inhibitors” (priority 2017, dated 2024).
Entries after “also recorded” stand apart in the source; their conditions may differ. Read-outs that look alike come from different tables or passages of the source.

Columns and labels:
L2 (class A ESBL) = L2 (class A ESBL) (Stenotrophomonas maltophilia (Pseudomonas maltophilia) (Xanthomonas maltophilia), UniProt P96465); experiment: Steady-state hydrolysis of β-lactams by purified L2; assay type: biochemical, S. maltophilia
Excerpt: (§1) As a prelude to investigation the effects of β-lactamase inhibitors, the hydrolysis of a range of candidate β-lactams in vitro by purified L1 (class B3 MBL) and L2 (class A ESBL) under steady state conditions were investigated.

S. maltophilia = experiment: microbe, parasite or virus in culture; assay type: cell-based, Stenotrophomonas maltophilia; settings: for MIC of the β-lactam alone (−) / MIC: no inhibitor; for MIC of aztreonam in the presence of the β-lactamase inhibitor / MIC of ceftazidime in the presence of the β-lactamase inhibitor / MIC of meropenem in the presence of the β-lactamase inhibitor / ability to potentiate β-lactams / reverse resistance (in words): inhibitor at 2 mg/L; for ability to potentiate β-lactams / reverse resistance (in words): β-lactam and strain named in the value; for MIC: Stenotrophomonas maltophilia
Description: S. maltophilia clinical isolates were K279a, a well characterised isolate from Bristol, UK, or were obtained from the SENTRY antimicrobial resistance survey, as previously reported. […] All growth media were from Oxoid. Chemicals were from Sigma, unless otherwise stated.
Susceptibility to β-lactams in bacterial isolates was determined using the CLSI microtitre minimum inhibitory concentration (MIC) methodology with Muller-Hinton Broth using 96 well plates (Corning, Costar). The MIC was determined as the lowest concentration of β-lactam required to entirely suppress growth. Inhibitor concentrations were kept constant at 2 mg/L or 10 mg/L in all assays. Interpretation of susceptibility/resistance was by reference to CLSI clinical breakpoints for S. maltophilia (ceftazidime) and for Pseudomonas aeruginosa (for aztreonam and meropenem, since no S. maltophilia breakpoints are available).

L1 (class B3 MBL) = L1 (class B3 MBL) (Stenotrophomonas maltophilia (Pseudomonas maltophilia) (Xanthomonas maltophilia), UniProt P52700); experiment: Steady-state hydrolysis of β-lactams by purified L1; assay type: biochemical, S. maltophilia
Excerpt: as §1

BlaC = BlaC (Mycobacterium tuberculosis (strain ATCC 25618 / H37Rv), UniProt P9WKD3); experiment: BlaC inhibition assay (FC5 hydrolysis, fluorescence); assay type: biochemical
Description: Recombinant BlaC, with an N-terminal His-tag, was produced in E. coli BL21(DE3) cells using auto-induction medium supplemented with 50 μg mL^−1 ampicillin. Cells were grown for four hours at 37° C. before cooling to 18° C. and continuing growth overnight. Cells were harvested by centrifugation (10 min, 10000 g).
FC5 was stored as a 2.5 mM solution in assay buffer supplemented with 10% (v/v) DMSO. Fluorescence measurements were made using a PHERAstar multi-mode plate reader (BMG Labtech). All assays were carried out at 25° C. Fluorescence assays were carried out using black 96 well format half area clear® plates (Greiner Bio-One) with a final assay volume of 100 μL. FC5 hydrolysis was followed by fluorescence (λex=380 nm, λem=460 nm) corresponding to the release of the umbelliferone fluorophore. The optimum concentration of enzyme for steady-state measurements was determined by examining the rate of substrate hydrolysis at varied concentrations of enzyme, with the concentration at which the initial rate remained constant for 5-10 min being selected as an appropriate enzyme concentration. Initial rates of substrate hydrolysis were determined at varying substrate concentrations. Steady-state kinetic parameters were determined by fitting of initial rates to the Michaelis-Menten equation using GraphPad Prism 5 software.
Inhibition assays were performed by monitoring the initial rate of FC5 hydrolysis via fluorescence at a range of inhibitor concentrations. Inhibitors were stored either as solids or as 100 mM stock solutions in DMSO, these were diluted to appropriate concentrations in the assay buffer. Typically inhibition assays were carried out using black 384 well format pclear® plates (Griener Bio-One) with a final assay volume of 25 μL. Enzyme concentrations were chosen to give a linear rate of FC5 hydrolysis over the first 5 min of the assay time with an FC5 concentration of 5 μM. Components were added in the following order and volumes:
The enzyme was incubated with the inhibitor for 10 min prior to initiation of the reaction by the addition of the substrate. The residual activities were calculated using the following formula:
[formula] IC50 values were calculated by fitting of residual residual activity curves using GraphPad Prism 5 software.

L2 = L2 (Stenotrophomonas maltophilia (Pseudomonas maltophilia) (Xanthomonas maltophilia), UniProt P96465); experiment: Inhibition of purified L2, fluorogenic substrate FC5 as reporter
Description: Steady state kinetic data were analysed by curve fitting to the Michaeilis-Menten equation using Prism software.

[1] = tested on: L1 β-lactamase production in S. maltophilia K279a; experiment: L1 β-lactamase induction by β-lactamase inhibitors (meropenem hydrolysis in cell extracts); assay type: cell-based; settings: 50 μg.mL^−1 inducer
Description: L1 activity was measured from the cell extracts in a 96-well plate reader by determining meropenem hydrolysis (100 μM) at λ=300 nm. Protein concentration was determined by using BioRad protein assay dye reagent. Specific activity was calculated by using the extinction coefficient of 9600 AU/M/cm and a pathlength correction for the microplate ([…]). Data presented are means +/−SEM, n=3.
Cultures were grown overnight using nutrient broth and used to inoculate (1:100 dilution) 10 ml nutrient broth cultures in sealed 30 ml universal bottles. Cultures were incubated for 2 h with shaking at 37° C. before test inducers were added, or not, and culture was continued for 2 h. Cells were pelleted by centrifugation (4,000×g, 10 min) and pellets treated with 100 μL of BugBuster (Ambion), pipetting up and down a few times before rocking for 10 min at room temperature. […] Protein concentration was determined using the BioRad protein assay reagent concentrate according to the manufacturer's instructions. L1 β-lactamase activity was determined using an Omega Fluostar (BMG Biotech) using meropenem as substrate in half-area 96 well UV-translucent plates (Greiner UV-Star. Bio-one) with 200 μl of 100 μM meropenem solution in assay buffer (60 mM Na2HPO4.7H2O pH 7.0, 40 mM NaH2PO4.H2O, 10 mM KCI, 1 mM MgSO4.7H2O, 100 μM ZnCl2) plus 10 μL of cell extract. […]

[2] = IC50, purified L2, FC5 substrate

L2, sequence (P96465 36-303 limits assumed): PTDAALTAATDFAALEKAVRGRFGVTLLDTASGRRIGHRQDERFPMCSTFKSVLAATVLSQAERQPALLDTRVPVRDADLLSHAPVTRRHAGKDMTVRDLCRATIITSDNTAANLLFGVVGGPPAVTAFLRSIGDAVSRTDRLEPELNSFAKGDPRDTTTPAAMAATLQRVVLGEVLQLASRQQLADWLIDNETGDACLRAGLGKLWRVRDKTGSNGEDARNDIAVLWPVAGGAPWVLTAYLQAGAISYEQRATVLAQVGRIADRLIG
L2 (class A ESBL), sequence (P96465 36-303 limits assumed): as above
BlaC, sequence (P9WKD3 35-307 limits assumed): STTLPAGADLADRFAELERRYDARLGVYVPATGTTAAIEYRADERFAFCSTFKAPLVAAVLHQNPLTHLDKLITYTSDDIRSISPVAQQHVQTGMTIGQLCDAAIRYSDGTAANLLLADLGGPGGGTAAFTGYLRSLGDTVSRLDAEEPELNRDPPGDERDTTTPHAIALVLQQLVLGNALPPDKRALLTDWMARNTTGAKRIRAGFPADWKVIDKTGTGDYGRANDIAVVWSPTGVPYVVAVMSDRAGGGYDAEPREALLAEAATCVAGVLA
L1 (class B3 MBL), sequence (P52700 whole entry, looked up): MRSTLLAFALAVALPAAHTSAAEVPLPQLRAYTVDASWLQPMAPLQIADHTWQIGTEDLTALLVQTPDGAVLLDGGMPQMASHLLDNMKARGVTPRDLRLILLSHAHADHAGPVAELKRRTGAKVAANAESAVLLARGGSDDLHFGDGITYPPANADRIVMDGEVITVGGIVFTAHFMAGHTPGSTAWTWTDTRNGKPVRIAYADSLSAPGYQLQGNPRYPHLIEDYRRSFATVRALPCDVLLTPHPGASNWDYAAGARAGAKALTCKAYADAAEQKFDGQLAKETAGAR

## CC(C)(O/N=C(\C(=O)N[C@@H]1C(=O)N2C(C(=O)[O-])=C(C[n+]3ccccc3)CS[C@H]12)c1csc(N)n1)C(=O)O [Ceftazidime]
L2 (class A ESBL)
  Km: 548 µM
  kcat: 1.88 s⁻¹
  kcat/KM: 3.4 (μM^−1 · s^−1) × 10^−3
S. maltophilia; CI-20
  MIC of the β-lactam alone (−): 16 µg/mL
S. maltophilia; CI-29
  MIC of the β-lactam alone (−): 8 µg/mL
S. maltophilia; CI-31
  MIC of the β-lactam alone (−): 256 µg/mL
S. maltophilia; K279a
  MIC of the β-lactam alone (−): 4 µg/mL
S. maltophilia; K AMI 32
  MIC of the β-lactam alone (−): 2 µg/mL
S. maltophilia; K CAZ 10
  MIC of the β-lactam alone (−): 64 µg/mL
S. maltophilia; K MOX 8
  MIC of the β-lactam alone (−): 4 µg/mL
L1 (class B3 MBL)
  Km: 260 µM
  kcat: 1.67 s⁻¹
  kcat/KM: 6.4 (μM^−1 · s^−1) × 10^−3

## C[C@@H](O)[C@H]1C(=O)N2C(C(=O)O)=C([C@H]3CCCO3)S[C@H]12 [Faropenem]
BlaC; pre-incubation time 0 min
  IC50: 3.72 µM
BlaC; pre-incubation time 10 min
  IC50: 2.51 µM
BlaC; pre-incubation time 60 min
  IC50: 3.55 µM

## O=C(O)[C@H]1/C(=C/CO)O[C@@H]2CC(=O)N21 [Clavulanic acid]
S. maltophilia; CI-20
  MIC of aztreonam in the presence of the β-lactamase inhibitor: 4 µg/mL
  MIC of ceftazidime in the presence of the β-lactamase inhibitor: 16 µg/mL
  MIC of meropenem in the presence of the β-lactamase inhibitor: 32 µg/mL
S. maltophilia; CI-29
  MIC of aztreonam in the presence of the β-lactamase inhibitor: 1 µg/mL
  MIC of ceftazidime in the presence of the β-lactamase inhibitor: 4 µg/mL
  MIC of meropenem in the presence of the β-lactamase inhibitor: 16 µg/mL
S. maltophilia; CI-31
  MIC of aztreonam in the presence of the β-lactamase inhibitor: 2 µg/mL
  MIC of ceftazidime in the presence of the β-lactamase inhibitor: 128 µg/mL
  MIC of meropenem in the presence of the β-lactamase inhibitor: 256 µg/mL
S. maltophilia; K279a
  MIC of aztreonam in the presence of the β-lactamase inhibitor: 1 µg/mL
  MIC of ceftazidime in the presence of the β-lactamase inhibitor: 4 µg/mL
  MIC of meropenem in the presence of the β-lactamase inhibitor: 32 µg/mL
S. maltophilia; K AMI 32
  MIC of aztreonam in the presence of the β-lactamase inhibitor: 0.5 µg/mL
  MIC of ceftazidime in the presence of the β-lactamase inhibitor: 1 µg/mL
  MIC of meropenem in the presence of the β-lactamase inhibitor: 8 µg/mL
S. maltophilia; K CAZ 10
  MIC of aztreonam in the presence of the β-lactamase inhibitor: 0.5 µg/mL
  MIC of ceftazidime in the presence of the β-lactamase inhibitor: 8 µg/mL
  MIC of meropenem in the presence of the β-lactamase inhibitor: 8 µg/mL
S. maltophilia; K MOX 8
  MIC of aztreonam in the presence of the β-lactamase inhibitor: 0.25 µg/mL
  MIC of ceftazidime in the presence of the β-lactamase inhibitor: 1 µg/mL
  MIC of meropenem in the presence of the β-lactamase inhibitor: 8 µg/mL
S. maltophilia
  ability to potentiate β-lactams / reverse resistance (in words): does not reduce the MIC of ceftazidime against S. maltophilia K279a; also recorded: reduces the aztreonam MIC against K279a
L2; [2]
  IC50: 0.0223 µM
L2; pIC50, purified L2, FC5 substrate
  IC50: 0.0389 µM
[1]
  induction of L1 production (in words): induced L1 production

## C[C@@H](O)[C@H]1C(=O)N2C(C(=O)O)=C(SCCN=CN)C[C@H]12 [Imipenem]
BlaC; pre-incubation time 0 min
  pIC50: 5.59 ± 0.01
BlaC; pre-incubation time 10 min
  pIC50: 6.09 ± 0.02
BlaC; pre-incubation time 60 min
  pIC50: 6.45 ± 0.05

## C[C@]1(Cn2ccnn2)[C@H](C(=O)O)N2C(=O)C[C@H]2S1(=O)=O [Tazobactam]
BlaC; pre-incubation time 0 min
  IC50: 6.46 µM
BlaC; pre-incubation time 10 min
  IC50: 2.75 µM
BlaC; pre-incubation time 60 min
  IC50: 3.55 µM

## C[C@@H](O)[C@H]1C(=O)N2C(C(=O)O)=C(S[C@@H]3CN[C@H](C(=O)N(C)C)C3)[C@H](C)[C@H]12 [Meropenem]
BlaC; pre-incubation time 0 min
  pIC50: 5.72 ± 0.06
BlaC; pre-incubation time 10 min
  pIC50: 6.41 ± 0.05
BlaC; pre-incubation time 60 min
  pIC50: 7.16 ± 0.03
L2 (class A ESBL)
  Km: 28.8 µM
  kcat: 0.028 s⁻¹
  kcat/KM: 0.97 (μM^−1 · s^−1) × 10^−3
S. maltophilia; CI-20
  MIC of the β-lactam alone (−): 64 µg/mL
S. maltophilia; CI-29
  MIC of the β-lactam alone (−): 32 µg/mL
S. maltophilia; CI-31
  MIC of the β-lactam alone (−): 256 µg/mL
S. maltophilia; K279a
  MIC of the β-lactam alone (−): 8 µg/mL
S. maltophilia; K AMI 32
  MIC of the β-lactam alone (−): 4 µg/mL
S. maltophilia; K CAZ 10
  MIC of the β-lactam alone (−): 64 µg/mL
S. maltophilia; K MOX 8
  MIC of the β-lactam alone (−): 4 µg/mL
L1 (class B3 MBL)
  Km: 105 µM
  kcat: 23.8 s⁻¹
  kcat/KM: 227 (μM^−1 · s^−1) × 10^−3

## C[C@H]1[C@H](NC(=O)/C(=N\OC(C)(C)C(=O)O)c2csc(N)n2)C(=O)N1S(=O)(=O)O [Aztreonam]
S. maltophilia; read-out: MIC of the β-lactam alone (−), CI-20
  MIC: 128 µg/mL
S. maltophilia; read-out: MIC of the β-lactam alone (−), CI-29
  MIC: 128 µg/mL
S. maltophilia; read-out: MIC of the β-lactam alone (−), CI-31
  MIC: 256 µg/mL
S. maltophilia; read-out: MIC of the β-lactam alone (−), K279a
  MIC: 128 µg/mL
S. maltophilia; read-out: MIC of the β-lactam alone (−), K AMI 32
  MIC: 128 µg/mL
S. maltophilia; read-out: MIC of the β-lactam alone (−), K CAZ 10
  MIC: 256 µg/mL
S. maltophilia; read-out: MIC of the β-lactam alone (−), K MOX 8
  MIC: 128 µg/mL

## NC(=O)[C@@H]1CC[C@@H]2CN1C(=O)N2OS(=O)(=O)O [Avibactam]
S. maltophilia; CI-20
  MIC of aztreonam in the presence of the β-lactamase inhibitor: 2 µg/mL
  MIC of ceftazidime in the presence of the β-lactamase inhibitor: 4 µg/mL
  MIC of meropenem in the presence of the β-lactamase inhibitor: 64 µg/mL
S. maltophilia; CI-29
  MIC of aztreonam in the presence of the β-lactamase inhibitor: 1 µg/mL
  MIC of ceftazidime in the presence of the β-lactamase inhibitor: 1 µg/mL
  MIC of meropenem in the presence of the β-lactamase inhibitor: 32 µg/mL
S. maltophilia; CI-31
  MIC of aztreonam in the presence of the β-lactamase inhibitor: ≤ 4 µg/mL
  MIC of ceftazidime in the presence of the β-lactamase inhibitor: 128 µg/mL
  MIC of meropenem in the presence of the β-lactamase inhibitor: 256 µg/mL
S. maltophilia; CI-31, listed as AVI
  MIC of aztreonam in the presence of the β-lactamase inhibitor: 4 µg/mL
S. maltophilia; K279a
  MIC of aztreonam in the presence of the β-lactamase inhibitor: 1 µg/mL
  MIC of ceftazidime in the presence of the β-lactamase inhibitor: 1 µg/mL
  MIC of meropenem in the presence of the β-lactamase inhibitor: 16 µg/mL
S. maltophilia; K AMI 32
  MIC of aztreonam in the presence of the β-lactamase inhibitor: 0.5 µg/mL
  MIC of ceftazidime in the presence of the β-lactamase inhibitor: 0.5 µg/mL
  MIC of meropenem in the presence of the β-lactamase inhibitor: 16 µg/mL
S. maltophilia; K CAZ 10
  MIC of aztreonam in the presence of the β-lactamase inhibitor: 1 µg/mL
  MIC of ceftazidime in the presence of the β-lactamase inhibitor: 8 µg/mL
  MIC of meropenem in the presence of the β-lactamase inhibitor: 64 µg/mL
S. maltophilia; K MOX 8
  MIC of aztreonam in the presence of the β-lactamase inhibitor: 0.5 µg/mL
  MIC of ceftazidime in the presence of the β-lactamase inhibitor: 0.5 µg/mL
  MIC of meropenem in the presence of the β-lactamase inhibitor: 16 µg/mL
S. maltophilia
  ability to potentiate β-lactams / reverse resistance (in words): reduce ceftazidime MICs against K279a
L2; [2]
  IC50: 0.0144 µM
[1]
  induction of L1 production (in words): neither avibactam nor 2 induces L1 to any measurable extent
